Activity calls are given as the source filed them.
Columns and labels:
SUMO E1/E2 = SUMO E1/E2 (Homo sapiens, UniProt P63279+Q9UBE0+Q9UBT2); assay: SAR analysis of SUMOylation using HTRF in an in-Vitro dose response assay. [Related pubchem assays (depositor defined):AID2006, AID2011, AID2018, AID2069, AID2658]; type: functional
[1] = target: T1, Voltage-gated N-type calcium channel alpha-1B subunit/Amyloid beta A4 precursor protein-binding family A member 1 (Homo sapiens, UniProt Q00975+Q02410); assay: disruptors of Mint-PDZ/N-type channel peptide interaction – biochemical, HTRF, set 2, SAR follow-up (AID 434980); type: functional
T1 sequence (Q00975 whole entry): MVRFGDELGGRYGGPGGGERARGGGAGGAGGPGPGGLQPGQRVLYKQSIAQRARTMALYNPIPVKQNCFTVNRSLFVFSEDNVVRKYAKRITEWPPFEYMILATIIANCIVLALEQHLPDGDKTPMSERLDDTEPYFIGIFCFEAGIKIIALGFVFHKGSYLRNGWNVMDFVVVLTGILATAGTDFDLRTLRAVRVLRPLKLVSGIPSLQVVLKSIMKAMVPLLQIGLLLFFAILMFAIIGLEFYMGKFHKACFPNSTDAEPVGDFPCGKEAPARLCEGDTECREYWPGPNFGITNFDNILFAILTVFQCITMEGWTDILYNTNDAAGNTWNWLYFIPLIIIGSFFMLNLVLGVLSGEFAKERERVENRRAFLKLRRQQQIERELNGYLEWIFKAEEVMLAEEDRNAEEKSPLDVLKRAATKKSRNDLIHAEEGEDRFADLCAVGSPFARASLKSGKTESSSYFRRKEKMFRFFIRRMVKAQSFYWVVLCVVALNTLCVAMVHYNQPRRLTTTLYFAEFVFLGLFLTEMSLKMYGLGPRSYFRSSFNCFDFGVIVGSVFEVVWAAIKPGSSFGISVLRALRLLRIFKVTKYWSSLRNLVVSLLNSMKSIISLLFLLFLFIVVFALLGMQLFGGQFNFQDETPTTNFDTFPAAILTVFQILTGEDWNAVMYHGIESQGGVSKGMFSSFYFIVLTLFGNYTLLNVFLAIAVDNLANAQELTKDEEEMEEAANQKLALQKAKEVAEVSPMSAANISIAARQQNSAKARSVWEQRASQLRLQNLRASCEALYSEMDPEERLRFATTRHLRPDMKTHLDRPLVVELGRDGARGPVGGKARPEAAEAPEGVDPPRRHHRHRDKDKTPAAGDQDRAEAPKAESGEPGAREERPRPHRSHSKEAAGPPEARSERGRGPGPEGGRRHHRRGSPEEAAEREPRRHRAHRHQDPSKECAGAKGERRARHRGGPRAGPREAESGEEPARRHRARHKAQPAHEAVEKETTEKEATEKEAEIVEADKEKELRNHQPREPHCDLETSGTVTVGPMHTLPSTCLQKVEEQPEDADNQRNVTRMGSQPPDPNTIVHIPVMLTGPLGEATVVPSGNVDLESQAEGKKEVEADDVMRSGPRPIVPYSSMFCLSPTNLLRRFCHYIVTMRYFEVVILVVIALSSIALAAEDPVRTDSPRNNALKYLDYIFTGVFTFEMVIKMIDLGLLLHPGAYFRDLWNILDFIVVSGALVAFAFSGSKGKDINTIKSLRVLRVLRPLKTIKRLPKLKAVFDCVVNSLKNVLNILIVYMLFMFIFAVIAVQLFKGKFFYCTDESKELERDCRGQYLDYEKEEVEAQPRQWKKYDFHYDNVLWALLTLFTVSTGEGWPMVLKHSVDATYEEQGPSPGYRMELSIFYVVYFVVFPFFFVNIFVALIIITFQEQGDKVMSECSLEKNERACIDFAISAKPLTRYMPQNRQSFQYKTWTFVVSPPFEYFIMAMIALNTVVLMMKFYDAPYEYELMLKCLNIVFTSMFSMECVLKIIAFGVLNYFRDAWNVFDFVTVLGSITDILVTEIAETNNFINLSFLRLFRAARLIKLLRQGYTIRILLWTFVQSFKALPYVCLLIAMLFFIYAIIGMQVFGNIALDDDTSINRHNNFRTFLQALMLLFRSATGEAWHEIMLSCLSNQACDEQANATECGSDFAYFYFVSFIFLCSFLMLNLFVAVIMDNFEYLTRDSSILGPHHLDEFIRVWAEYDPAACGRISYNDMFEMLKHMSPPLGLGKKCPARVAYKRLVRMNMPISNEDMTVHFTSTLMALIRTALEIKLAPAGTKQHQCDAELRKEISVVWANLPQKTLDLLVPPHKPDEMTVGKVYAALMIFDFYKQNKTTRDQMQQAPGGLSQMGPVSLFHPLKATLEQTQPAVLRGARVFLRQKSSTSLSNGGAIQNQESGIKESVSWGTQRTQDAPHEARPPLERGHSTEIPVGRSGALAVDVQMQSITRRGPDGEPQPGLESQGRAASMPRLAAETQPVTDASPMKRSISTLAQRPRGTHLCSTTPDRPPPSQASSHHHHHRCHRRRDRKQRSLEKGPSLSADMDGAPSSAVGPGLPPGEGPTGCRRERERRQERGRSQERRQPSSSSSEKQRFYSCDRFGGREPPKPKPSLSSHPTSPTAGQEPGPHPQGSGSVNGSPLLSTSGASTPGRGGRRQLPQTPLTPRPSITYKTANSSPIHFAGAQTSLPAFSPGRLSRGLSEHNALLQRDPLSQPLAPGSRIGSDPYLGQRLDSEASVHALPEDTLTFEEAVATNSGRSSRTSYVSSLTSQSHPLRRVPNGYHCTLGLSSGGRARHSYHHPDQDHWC
T1 sequence (Q02410 whole entry): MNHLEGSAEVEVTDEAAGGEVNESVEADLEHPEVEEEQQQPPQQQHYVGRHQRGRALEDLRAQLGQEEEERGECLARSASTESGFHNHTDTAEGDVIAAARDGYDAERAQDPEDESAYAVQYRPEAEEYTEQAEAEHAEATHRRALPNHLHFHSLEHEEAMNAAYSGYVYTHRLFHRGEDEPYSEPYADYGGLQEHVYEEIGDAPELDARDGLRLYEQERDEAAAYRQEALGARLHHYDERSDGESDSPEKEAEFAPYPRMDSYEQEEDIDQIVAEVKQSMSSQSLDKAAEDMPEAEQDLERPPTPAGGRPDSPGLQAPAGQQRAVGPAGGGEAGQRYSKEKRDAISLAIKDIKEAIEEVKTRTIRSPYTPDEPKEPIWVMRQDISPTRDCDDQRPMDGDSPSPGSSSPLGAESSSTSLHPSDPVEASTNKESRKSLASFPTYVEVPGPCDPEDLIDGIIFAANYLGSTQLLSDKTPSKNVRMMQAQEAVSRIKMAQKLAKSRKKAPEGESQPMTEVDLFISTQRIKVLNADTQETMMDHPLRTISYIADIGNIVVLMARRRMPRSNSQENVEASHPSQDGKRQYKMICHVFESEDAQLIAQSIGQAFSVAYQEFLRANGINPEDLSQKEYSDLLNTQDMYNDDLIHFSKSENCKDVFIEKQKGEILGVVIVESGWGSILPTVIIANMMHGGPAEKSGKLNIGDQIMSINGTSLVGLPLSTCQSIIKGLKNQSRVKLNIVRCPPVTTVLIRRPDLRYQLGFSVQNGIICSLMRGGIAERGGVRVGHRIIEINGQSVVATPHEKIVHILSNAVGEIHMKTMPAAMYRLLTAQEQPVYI

[2] = target: T1, Voltage-gated N-type calcium channel alpha-1B subunit/Amyloid beta A4 precursor protein-binding family A member 1; assay: disruptors of Mint-PDZ/N-type channel peptide interaction – biochemical, HTRF, SAR follow-up (AID 2489); type: functional
[3] = target: Potassium voltage-gated channel subfamily KQT member 2 (Rattus norvegicus, UniProt O88943); assay: retigabine-insensitive KCNQ2 potentiators, concentration-response, dose response, cell-based, retigabine-insensitive compounds (AID 2654); type: functional
Bcl-2-like protein 10 = Bcl-2-like protein 10 (Homo sapiens, UniProt Q9HD36); assay: displacers of TR3 peptide from Bcl-B, primary screen, selectivity assay for Bfl-1 inhibitor project, biochemical, fluorescence polarization, FITC-TR3 peptide (AID 748);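 further: fluorescence polarization from a fluorescein-labelled TR3 peptide binding purified Bcl-B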
Chain of Bcl-2-like protein 10 (Q9HD36 whole entry): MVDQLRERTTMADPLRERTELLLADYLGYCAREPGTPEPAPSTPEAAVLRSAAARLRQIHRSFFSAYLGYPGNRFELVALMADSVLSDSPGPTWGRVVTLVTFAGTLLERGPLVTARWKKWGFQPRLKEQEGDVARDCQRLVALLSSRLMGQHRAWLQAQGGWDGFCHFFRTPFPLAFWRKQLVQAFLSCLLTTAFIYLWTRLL

[4] = microbe, parasite or virus in culture; type: functional; conditions: Mycobacterium tuberculosis
[5] = THP-1 cell cytotoxicity, dose response, cytotoxicity control for non-replicating M. tuberculosis project (AID 489025); type: functional
[6] = HepG2 cell cytotoxicity, dose response, cytotoxicity control for non-replicating M. tuberculosis project (AID 489018); type: functional; conditions: Mycobacterium tuberculosis
[7] = Vero E6 cell cytotoxicity, dose response, cytotoxicity control for non-replicating M. tuberculosis project, secondary assay (AID 492998); type: functional, VeroE6; conditions: Vero C1008
cells = type: functional
[8] = NIH-3T3 fibroblast cytotoxicity, dose response, cytotoxicity control, cell-based, fluorescence, Alamar Blue, secondary assay (AID 2327); type: functional;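 further: NIH-3T3 mouse fibroblasts cultured with fluconazole at 8 µg/mL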
[9] = target: T2, RNA-binding protein pos-1 (Caenorhabditis elegans, UniProt G5EF15); assay: inhibitors of POS-1/mex-3 RNA binding, dose response, biochemical, fluorescence polarization (AID 1964);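 further: purified POS-1 fused to maltose binding protein made in E. coli; potency of compounds blocking POS-1 binding to fluorescent RNA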
T2 sequence (G5EF15 whole entry): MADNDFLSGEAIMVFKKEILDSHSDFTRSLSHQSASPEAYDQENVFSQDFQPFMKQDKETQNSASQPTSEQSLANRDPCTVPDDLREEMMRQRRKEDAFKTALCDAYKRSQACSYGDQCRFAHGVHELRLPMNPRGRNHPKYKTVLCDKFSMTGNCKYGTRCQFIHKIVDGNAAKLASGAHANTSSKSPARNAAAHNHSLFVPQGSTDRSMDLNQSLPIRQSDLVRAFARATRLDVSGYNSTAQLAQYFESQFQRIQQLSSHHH

[10] = target: Peroxisome proliferator-activated receptor gamma/Nuclear receptor coactivator 1 (Homo sapiens, UniProt P37231); assay: (§1) TR-FRET dose response biochemical High Throughput Screening assay for agonists of the steroid receptor coactivator 1 (SRC-1) recruitment by the peroxisome proliferator-activated receptor gamma (PPAR gamma): non-selective agonists. [Related pubchem assays (depositor defined):AID1300, AID1808, AID504735, AID631]; type: protein assay
[11] = target: Peroxisome proliferator-activated receptor gamma/Nuclear receptor coactivator 3 (Homo sapiens, UniProt P37231); assay: as §1, with “3 (SRC-3)” for “1 (SRC-1)”, “assays: 1301 (Confirmation screen.), 1048 (Primary screen.)]” for “assays (depositor defined):AID1300, AID1808, AID504735, AID631]”; type: functional
[12] = target: T3, Zinc finger protein mex-5 (Caenorhabditis elegans, UniProt Q9XUB2); assay: MEX-5/TCR-2 RNA interaction inhibitors, dose response, biochemical, C. elegans, fluorescence polarization (AID 1960)
T3 sequence (Q9XUB2 whole entry): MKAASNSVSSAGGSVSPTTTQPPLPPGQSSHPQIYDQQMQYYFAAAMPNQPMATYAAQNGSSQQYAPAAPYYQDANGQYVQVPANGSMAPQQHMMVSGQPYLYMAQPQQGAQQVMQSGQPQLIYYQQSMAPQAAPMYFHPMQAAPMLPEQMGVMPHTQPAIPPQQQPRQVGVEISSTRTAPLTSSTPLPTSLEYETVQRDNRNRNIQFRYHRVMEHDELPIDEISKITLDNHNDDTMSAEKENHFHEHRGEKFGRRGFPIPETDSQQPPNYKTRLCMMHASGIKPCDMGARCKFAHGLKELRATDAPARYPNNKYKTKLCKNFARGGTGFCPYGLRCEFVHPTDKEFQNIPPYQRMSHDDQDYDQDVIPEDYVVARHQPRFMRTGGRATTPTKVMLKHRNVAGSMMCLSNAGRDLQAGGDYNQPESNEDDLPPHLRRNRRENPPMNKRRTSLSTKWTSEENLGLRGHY

[13] = C. albicans growth with fluconazole, confirmation, fluorescence, retest (AID 2467); type: functional, cell-based
[14] = target: Peroxisome proliferator-activated receptor gamma/Nuclear receptor coactivator 2 (Homo sapiens, UniProt P37231); assay: TR-FRET dose response biochemical High Throughput Screening assay for agonists of the steroid receptor coactivator 2 (SRC-2) recruitment by the peroxisome proliferator-activated receptor gamma (PPAR gamma): non-selective agonists. [Related pubchem assays: 1297, 1032 ]; type: functional
ORF 73 = ORF 73 (Human herpesvirus 8, UniProt O40947); assay: inhibitors of C-LANA binding to LBS DNA, dose response, biochemical, fluorescence polarization, cherry-picked samples (AID 504725); parameters: species or system Human gammaherpesvirus 8;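 further: fluorescence polarization of a labeled DNA duplex reporting LANA DNA binding; potency is for inhibitors that block LANA binding to the DNA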
[15] = target: UDP-galactopyranose mutase (Mycobacterium tuberculosis, UniProt P9WIQ1); assay: Inhibitors of Mycobacterium tuberculosis UDP-galactopyranose mutase (UGM) enzyme Measured in Biochemical System Using Plate Reader - 2105-02_Inhibitor_Dose_CherryPick_Activity. [Related pubchem assays (depositor defined):AID504439]
Chain of UDP-galactopyranose mutase (P9WIQ1 whole entry): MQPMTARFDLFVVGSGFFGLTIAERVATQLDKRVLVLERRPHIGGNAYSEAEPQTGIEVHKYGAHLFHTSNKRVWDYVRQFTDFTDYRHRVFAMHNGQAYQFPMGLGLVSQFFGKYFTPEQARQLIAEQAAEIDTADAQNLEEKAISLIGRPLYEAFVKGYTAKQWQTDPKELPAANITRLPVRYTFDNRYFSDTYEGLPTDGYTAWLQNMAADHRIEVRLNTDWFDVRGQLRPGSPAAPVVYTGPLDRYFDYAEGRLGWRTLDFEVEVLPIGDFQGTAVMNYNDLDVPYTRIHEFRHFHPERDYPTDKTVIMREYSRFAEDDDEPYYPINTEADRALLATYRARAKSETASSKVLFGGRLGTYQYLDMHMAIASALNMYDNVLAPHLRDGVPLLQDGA

Keap1/Nrf2 = Keap1/Nrf2 (Homo sapiens, UniProt Q14145); assay: Keap1-Nrf2 protein-protein interaction inhibitors, dose response, biochemical, fluorescence polarization, cherry-picked samples (AID 588683)

Chain of SUMO E1/E2 (Q9UBE0 whole entry): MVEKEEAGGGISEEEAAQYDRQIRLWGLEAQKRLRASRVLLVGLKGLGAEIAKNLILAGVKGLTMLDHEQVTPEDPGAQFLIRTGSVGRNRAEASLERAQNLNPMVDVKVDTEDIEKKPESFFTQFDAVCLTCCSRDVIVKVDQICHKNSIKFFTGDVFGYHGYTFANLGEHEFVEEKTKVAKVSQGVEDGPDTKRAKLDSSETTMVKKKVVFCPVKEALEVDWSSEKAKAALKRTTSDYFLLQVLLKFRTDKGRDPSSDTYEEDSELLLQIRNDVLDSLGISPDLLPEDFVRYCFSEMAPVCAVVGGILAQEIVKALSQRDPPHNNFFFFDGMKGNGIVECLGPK
Chain of SUMO E1/E2 (Q9UBT2 whole entry): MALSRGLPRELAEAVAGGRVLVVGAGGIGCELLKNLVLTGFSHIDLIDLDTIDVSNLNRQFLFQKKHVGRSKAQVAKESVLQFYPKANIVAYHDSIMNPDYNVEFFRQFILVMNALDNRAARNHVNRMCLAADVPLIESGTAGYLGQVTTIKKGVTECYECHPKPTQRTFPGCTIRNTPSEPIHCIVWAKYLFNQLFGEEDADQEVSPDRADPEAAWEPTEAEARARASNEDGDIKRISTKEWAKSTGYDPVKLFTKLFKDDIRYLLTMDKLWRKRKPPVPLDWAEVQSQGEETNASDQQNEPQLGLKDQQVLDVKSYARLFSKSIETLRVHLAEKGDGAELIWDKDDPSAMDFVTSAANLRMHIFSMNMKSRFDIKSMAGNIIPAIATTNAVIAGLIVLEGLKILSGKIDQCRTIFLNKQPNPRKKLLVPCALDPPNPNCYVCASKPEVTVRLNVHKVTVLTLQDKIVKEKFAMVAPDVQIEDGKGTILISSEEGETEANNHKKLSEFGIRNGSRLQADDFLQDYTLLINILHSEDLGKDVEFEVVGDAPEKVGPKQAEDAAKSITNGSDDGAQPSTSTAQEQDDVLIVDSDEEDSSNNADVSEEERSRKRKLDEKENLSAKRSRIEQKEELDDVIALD
Chain of SUMO E1/E2 (P63279 whole entry): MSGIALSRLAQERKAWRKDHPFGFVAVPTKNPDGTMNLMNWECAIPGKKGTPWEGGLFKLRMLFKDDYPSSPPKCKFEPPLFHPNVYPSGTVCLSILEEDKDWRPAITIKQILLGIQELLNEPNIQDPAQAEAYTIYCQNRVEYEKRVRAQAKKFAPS

In the case of `Cc1ccc(S(=O)(=O)N(C)C)cc1NC(=O)c1cc(-c2ccco2)nc2ccccc12`, the IC50 (SUMO E1/E2) is reported as 4.98 µM (active), the IC50 [1] is reported as > 56.8 µM (inactive) and the IC50 [2] is reported as > 56.8 µM (inactive).

In the case of `O=C(NCc1ccc(Cl)cc1Cl)Nc1cncc(F)c1`, the EC50 [3] is reported as 8.64 µM (active).

With `Cc1c(CN(C)C)c2c(n1Cc1ccccc1)C(=O)c1ccc(Br)cc1-2` the IC50 (Bcl-2-like protein 10) was > 50 µM (inactive), the CC50 [4] was 22 µM (active) and the CC50 [5] was 10.5 µM (active). The CC50 [6] was > 20 µM (active), the CC50 [7] was 15.3 µM (active) and the IC50 (cells) was 10.6 µM (active).

For `COc1ccc(C2C(C(=O)c3cccs3)=C(O)C(=O)N2c2nncs2)cc1` (stereo not given), the EC50 [8] was > 150 µM (inconclusive), the EC50 [9] was 0.549 µM (inconclusive) and the EC50 [10] was > 79.4 µM (inactive). For the same compound, the EC50 [11] was > 79.4 µM (not active), the EC50 [12] was 0.1 µM (inconclusive) and the EC50 [13] was > 38 µM (not active). The EC50 [14] was > 79.4 µM (not active), the AC50 (ORF 73) was 7.29 µM (active) and the AC50 [15] was 51.7 µM (active). For the same compound, the AC50 (Keap1/Nrf2) was 20.3 µM (active).

Source: ChEMBL document CHEMBL1201862, “PubChem BioAssay data set” (2004)
